Patent US10864207B2, “Method of treating endothelial dysfunction” (Celagenex Research (India) Pvt. Ltd., priority 2019, dated 2020)

Assays:
PGI2 gene = PGI2 gene expression by semi-quantitative RT-PCR in H9C2 cells; format: cell-based, rat; conditions: for PGI2 expression in % / Regulation in Terms of Folds PGI2: normalized to GAPDH; for Regulation in Terms of Folds PGI2: control = 1.00
Method: […] […] [Hunter C. Champion et al. PNAS, 2005; 102:5:1661-1666].
PGI2 were estimated for the test substance by gene expression method, where the level of expression of PGI2 expression on Rat Cardiomyocytes (H9C2) was determined with respect to untreated H9C2 cells.
(§1) The H9C2 cells treated with drug were subjected to cell lysis by treating with Tri-extraction reagent. Chloroform was added, to isolate the total RNA from the sample and subjected for centrifugation. Out of the three distinct layers observed, upper layer was collected in fresh tube and equal volume of isopropanol was added and incubated at −20° C. for 10 mins. After the incubation followed by centrifugation, appropriate volume of ethanol was added to resuspend the pellet. After incubation and centrifugation, the pellet was air dried and appropriate volume of TAE buffer was added. The isolated total RNA was further used for cDNA synthesis. cDNA was synthesized by priming with oligo-dT primers followed by reverse transcriptase enzyme treatment according to manufacturers protocol (Thermoscienctific). The cDNA thus synthesized was taken up for PCR for the amplification of PGI2 and GAPDH/β-Actin (internal control).
The mRNA expression levels of PGI2 were determined using semi-quantitative reverse transcriptase-polymerase chain reaction (RT-PCR). 50 μl of the reaction mixture was subjected to PCR for amplification of PGI2. cDNAs using specifically designed primers procured from Eurofins, India and GAPDH/β-Actin (House keeping genes) was co-amplified with each reaction as an internal control.
PGI2: 95° C. for 5 min followed by 35 cycles of denaturation at 95° C. for 30 seconds, annealing Tm for 30 seconds and extension at 72° C. for 45 seconds. This was followed by final extension at 72° C. for 10 min. The primers used in this example for I strand synthesis and IInd strand synthesis are disclosed in priority Indian Patent Application No. 201921000093, filed Jan. 2, 2019, which is incorporated herein by reference.

eNOS gene = eNOS gene expression by semi-quantitative RT-PCR in H9C2 cells; format: cell-based, rat; conditions: for eNOS expression in % / Regulation in Terms of Folds eNOS: normalized to β-Actin; for Regulation in Terms of Folds eNOS: control = 1.00
Method: The test substances were evaluated for their gene expression activity in H9C2 (rat cardiomyocytes) and the concentration of test substances (G1, G2 and G3) taken for gene expression studies was 500 μg/ml. […] [Hunter C. Champion, et al. “PNAS, 2005; 102:5:1661-1666.]
eNOS levels were estimated for the test substance by gene expression method, where the level of expression of eNOS expression on […] Cardiomyocytes (H9C2) was determined with respect to untreated H9C2 cells.
as §1, with “test samples” for “drug”, “added” for “added,”, “manufacturer's” for “manufacturers”, “eNOS” for “PGI2”, “GAPDH” for “GAPDH/β-Actin”
The mRNA expression levels of eNOS were determined using semi-quantitative reverse transcriptase-polymerase chain reaction (RT-PCR). 50 μl of the reaction mixture was subjected to PCR for amplification of eNOS. cDNAs using specifically designed primers procured from Eurofins, India and GAPDH/β-Actin (House keeping genes) was co-amplified with each reaction as an internal control.
eNOS: 95° C. for 5 min followed by 35 cycles of denaturation at 95° C. for 30 seconds, annealing temperature for 30 seconds and extension at 72° C. for 45 seconds. This was followed by final extension at 72° C. for 10 min. The primers used in this example for I strand synthesis and IInd strand synthesis are disclosed in priority Indian Patent Application No. 201921000093, filed Jan. 2, 2019, which is incorporated herein by reference.

Row | Compound | PGI2 gene expression increase as compared to the control (PGI2 gene; 500 μg/ml) | PGI2 expression in % (PGI2 gene; 500 μg/ml) | Regulation in Terms of Folds PGI2 (PGI2 gene; 500 μg/ml) | eNOS expression in % (eNOS gene; 500 μg/ml) | Regulation in Terms of Folds eNOS (eNOS gene; 500 μg/ml) | eNOS gene over-expression as compared to the control (eNOS gene; at tested doses (500 μg/ml)) | PGI2 expression in % (PGI2 gene; 250 μg/ml) | Regulation in Terms of Folds PGI2 (PGI2 gene; 250 μg/ml) | eNOS expression in % (eNOS gene; 250 μg/ml) | Regulation in Terms of Folds eNOS (eNOS gene; 250 μg/ml) | eNOS gene up-regulation over control (eNOS gene; standard sample (250 μg/ml))
1 | C[n+]1cccc(C(N)=O)c1 [Group G1, N^1-methyl nicotinamide chloride] | 0.14 folds | 14% | 1.14 fold | 21% | 1.21 fold | 0.21 folds | – | – | – | – | –
2 | O=[N+]([O-])OCC(CO[N+](=O)[O-])O[N+](=O)[O-] [Nitroglycerin, reference compound] | – | – | – | – | – | – | 29% | 1.29 fold | 56% | 1.56 fold | 0.56 fold
